Source: patent US20090239841A1, “Diaryl Ureas as CB1 Antagonists” (priority 2004, published 2009)

These molecules were tested against T1, hCB1 (Homo sapiens, UniProt P21554) (assay: Agonist-induced GTP binding (GTPγ35S) assay at CB1, Example 8). Conditions: IC50 at CB1, determined as described in Example 8; read-out: IC50.
T1 construct: made in house; host or cells: Sf9 insect cells (baculovirus), P2 membranes
Type: biochemical
In short: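 Antagonism read as inhibition of 1 nM CP55,940-stimulated GTPγ35S ([…]) binding, compounds at 10^−10 to 10^−5 M. Baculovirus-infected Sf9 membranes bearing hCB1 plus G-protein subunits, 60 min room-temperature incubation with 5 μM GDP. Filtration and scintillation counting; data as percent over basal.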

T1 sequence (P21554 whole entry): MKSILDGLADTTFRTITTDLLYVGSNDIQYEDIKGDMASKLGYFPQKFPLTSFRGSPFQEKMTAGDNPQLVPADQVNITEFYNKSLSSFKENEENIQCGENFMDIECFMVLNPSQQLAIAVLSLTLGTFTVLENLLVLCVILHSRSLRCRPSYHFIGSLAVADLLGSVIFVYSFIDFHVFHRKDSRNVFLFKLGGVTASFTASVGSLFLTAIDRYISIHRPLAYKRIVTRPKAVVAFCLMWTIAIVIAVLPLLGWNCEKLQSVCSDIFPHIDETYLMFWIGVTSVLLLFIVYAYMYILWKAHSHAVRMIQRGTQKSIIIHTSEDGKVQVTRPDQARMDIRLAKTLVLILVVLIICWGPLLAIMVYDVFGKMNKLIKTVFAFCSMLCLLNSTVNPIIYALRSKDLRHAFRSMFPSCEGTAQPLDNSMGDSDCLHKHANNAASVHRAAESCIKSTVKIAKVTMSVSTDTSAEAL

**Q.** How did the IC50 turn out when Cc1ccc(NC(=O)Nc2ccc(C)c(F)c2)cc1F [Compound 772, 1,3-bis(3-fluoro-4-methylphenyl)urea] was run?
**A.** < 2000 nM

**Q.** Cc1ccc(NC(=O)Nc2ccc(F)c(F)c2)cc1F [Compound 774, 1-(3,4-difluorophenyl)-3-(3-fluoro-4-methylphenyl)urea] was tested. Which IC50 did it give?
**A.** < 2000 nM

**Q.** O=C(Nc1ccc(F)c(F)c1)Nc1ccc2c(c1)CCC2 [Compound 775, 1-(3,4-difluorophenyl)-3-(2,3-dihydro-1H-inden-5-yl)urea] was tested. Which IC50 did it give?
**A.** < 2000 nM

**Q.** How did the IC50 turn out when Cc1ccc(NC(=O)Nc2ccc(C)c(Cl)c2)cc1F [Compound 776, 1-(3-chloro-4-methylphenyl)-3-(3-fluoro-4-methylphenyl)urea] was run?
**A.** < 2000 nM

**Q.** With Cc1ccc(NC(=O)Nc2ccc(F)c(F)c2)cc1Cl [Compound 777, 1-(3-chloro-4-methylphenyl)-3-(3,4-difluorophenyl)urea] as the molecule, how does the IC50 read?
**A.** < 2000 nM

**Q.** With CCOC(=O)c1ccc(NC(=O)Nc2ccc(F)cc2C(F)(F)F)cc1 [Compound 778, ethyl 4-[({[4-fluoro-2-(trifluoromethyl)phenyl]amino}carbonyl)amino]benzoate] as the molecule, how does the IC50 read?
**A.** < 2000 nM

**Q.** How did the IC50 turn out when CCOC(=O)c1ccc(NC(=O)Nc2ccc(Cl)nc2)cc1 [Compound 779, ethyl 4-({[(6-chloropyridin-3-yl)amino]carbonyl}amino)benzoate] was run?
**A.** < 2000 nM

**Q.** Which IC50 does the source give for Cc1ccc(NC(=O)Nc2ccc(Cl)nc2)cc1C [Compound 780, 1-(6-chloropyridin-3-yl)-3-(3,4-dimethylphenyl)urea] here?
**A.** < 2000 nM

**Q.** With Cc1ccc(NC(=O)Nc2ccc(Cl)nc2)cc1F [Compound 781, 1-(6-chloropyridin-3-yl)-3-(3-fluoro-4-methylphenyl)urea] as the molecule, how does the IC50 read?
**A.** < 2000 nM

**Q.** How did the IC50 turn out when CCOC(=O)c1cccc(NC(=O)Nc2cccc(OC(F)F)c2)c1 [Compound 782, ethyl 3-[({[3-(difluoromethoxy)phenyl]amino}carbonyl)amino] benzoate] was run?
**A.** < 2000 nM

**Q.** For N#CCOc1ccc(NC(=O)Nc2cccc(OC(F)F)c2)cc1 [Compound 783, N-[4-(cyanomethoxy)phenyl]-N′-[3-(difluoromethoxy)phenyl]urea], which IC50 is on record?
**A.** < 2000 nM

**Q.** Which IC50 does the source give for O=C(Nc1ccc(Cn2cncn2)cc1)Nc1cccc(OC(F)F)c1 [Compound 784, N-[3-(difluoromethoxy)phenyl]-N′-[4-(1H-1,2,4-triazol-1-ylmethyl)phenyl]urea] here?
**A.** < 2000 nM

**Q.** How did the IC50 turn out when CN(CCc1cccc(NC(=O)Nc2cccc(OC(F)F)c2)c1)S(C)(=O)=O [Compound 785, N-(2-{3-[({[3-(difluoromethoxy)phenyl]amino}carbonyl)amino]phenyl}ethyl)-N-methylmethane-sulfonamide] was run?
**A.** < 2000 nM

**Q.** Which IC50 does the source give for O=C(Nc1ccc(Cn2ccnc2)cc1)Nc1ccc(OC(F)F)cc1 [Compound 786, N-[4-(difluoromethoxy)phenyl]-N′-[4-(1H-irnidazol-1-ylmethyl)phenyl]urea] here?
**A.** < 2000 nM

**Q.** O=C(Nc1ccc(Cn2cncn2)cc1)Nc1ccc(OC(F)F)cc1 [Compound 787, N-[4-(difluoromethoxy)phenyl]-N′-[4-(1H-1,2,4-triazol-1-ylmethyl)phenyl]urea] was tested. Which IC50 did it give?
**A.** < 2000 nM

**Q.** With CN1CCN(S(=O)(=O)c2cccc(NC(=O)Nc3cccc(OC(F)F)c3)c2)CC1 [Compound 788, N-[3-(difluoromethoxy)phenyl]-N′-{3-[(4-methyl-1-piperazinyl)sulfonyl]phenyl}urea] as the molecule, how does the IC50 read?
**A.** < 2000 nM

**Q.** How did the IC50 turn out when O=C(Nc1ccc(S(=O)(=O)N2CCNCC2)cc1)Nc1cccc(OC(F)F)c1 [Compound 789, N-[3-(difluoromethoxy)phenyl]-N′-[4-(1-piperazinylsulfonyl)phenyl]urea] was run?
**A.** < 2000 nM

**Q.** For CN1CCN(S(=O)(=O)c2ccc(NC(=O)Nc3cccc(OC(F)F)c3)cc2)CC1 [Compound 790, N-[3-(difluoromethoxy)phenyl]-N′-{4-[(4-methyl-1-piperazinyl)sulfonyl]phenyl}urea], which IC50 is on record?
**A.** < 2000 nM

**Q.** For CCn1nnnc1-c1ccc(NC(=O)Nc2cccc(OC(F)F)c2)cc1 [Compound 791, N-[3-(difluoromethoxy)phenyl]-N′-[4-(1-ethyl-1H-tetrazol-5-yl)phenyl]urea], which IC50 is on record?
**A.** < 2000 nM

**Q.** For CCn1nnc(-c2ccc(NC(=O)Nc3cccc(OC(F)F)c3)cc2)n1 [Compound 792, N-[3-(difluoromethoxy)phenyl]-N′-[4-(2-ethyl-2H-tetrazol-5-yl)phenyl]urea], which IC50 is on record?
**A.** < 2000 nM

**Q.** For NC(=O)CN1CCN(S(=O)(=O)c2ccc(NC(=O)Nc3cccc(OC(F)F)c3)cc2)CC1 [Compound 793, 2-[4-({4-[({[3-(difluoromethoxy)phenyl]amino}carbonyl)amino]phenyl}sulfonyl)-1-piperazinyl] acetamide], which IC50 is on record?
**A.** < 2000 nM

**Q.** Which IC50 does the source give for Cn1nnnc1-c1cccc(NC(=O)Nc2ccc(Cn3ccnn3)cc2)c1 [Compound 794, N-[3-(1-methyl-1H-tetrazol-5-yl)phenyl]-N′-[4-(1H-1,2,3-triazol-1-ylmethyl)phenyl]urea] here?
**A.** < 2000 nM
